Reference: patent publication US12059472B2 (Bayer Aktiengesellschaft, priority 2016, dated 2024)
pIC50: −log10 of the molar value. Entries after “also recorded” stand apart in the source; their conditions may differ. Counter-ions that a name gives are not always drawn. One block for each molecule: values may come before it.

Assays:
[1] = Stability in rat liver lysosomes; assay type: in vitro ADME; conditions: rat liver lysosomal extract, 37° C.; for extent of cleavage in the lysosomal stability assay: within 24 h
Procedure: To determine the lysosomal stability of compounds RM-A and RM-B, lysosomal enzymes were isolated from rat liver cells. Compounds A and B were each added to this lysosomal extract in order to examine stability under lysosomal conditions. The proteolytic enzyme legumain is expressed only in a very small amount, if any, in rat liver lysosomes (Chen, J-M. et al 1997). To monitor the enzymatic activity of the lysosomal enzymes, a cathepsin-specific substrate was added.
First of all, a fresh rat liver was removed, weighed and immediately placed on ice in homogenization medium (0.25 M sucrose, 1 mM EDTA, 10 mM HEPES, pH7). The liver was comminuted and a change of medium was undertaken. The rat livers were homogenized with 4 times the amount of the rat liver weight at 750 rpm in a Potter (B. Braun). The homogenate was centrifuged at 1000 g for 10 min and the supernatant was filtered. In the next step, with the aid of an ultracentrifuge, the “light mitochondrial fraction” (LMF) was centrifuged out of the supernatant at 26 500 g over 20 min. Also present in the pellet apart from mitochondria are the lysosomes. The supernatant was discarded and the pellet was resuspended with 0.8 ml/g of homogenization medium.
The sucrose was added from a 2.3 M stock solution of the particular percentage. 2.5 ml of isolated LMF were additionally added to the density stage with a sucrose content of 19%. Subsequently, the density stages were layered one on top of another in 10 ml centrifuge tubes and centrifuged at 48 500 g for 17 h. […] To monitor the lysis, the protein content of the lysed lysosomal fraction was monitored with the aid of a BCA assays (Pierce BCA protein assay kit).
To examine the lysosomal stability of compounds RM-A and RM-B, 6 μl of a 100 μg/ml stock solution (9 acetonitrile/1 DMSO) were added to 290 μl of 90 mM citrate buffer and 300 μl of lysosomal extract and incubated at 37° C. on an Eppendorf shaker. […] For the RP-HPLC LCMS analysis, the samples were diluted with 300 μl of 10 mM ammonium acetate buffer (pH 6.8) and analysed.

legumain = legumain (Homo sapiens (Human), UniProt Q99538); test: Legumain assay (cleavage of prodrug); assay type: biochemical; conditions: pH 5.0; for half-life: human, recombinant human legumain, rh legumain 1 ng/μl, 50 mM MES, 250 mM NaCl, read-out: half-life of cleavage to the target compound in the legumain assay (converted)
Chain of legumain (Q99538 18-323): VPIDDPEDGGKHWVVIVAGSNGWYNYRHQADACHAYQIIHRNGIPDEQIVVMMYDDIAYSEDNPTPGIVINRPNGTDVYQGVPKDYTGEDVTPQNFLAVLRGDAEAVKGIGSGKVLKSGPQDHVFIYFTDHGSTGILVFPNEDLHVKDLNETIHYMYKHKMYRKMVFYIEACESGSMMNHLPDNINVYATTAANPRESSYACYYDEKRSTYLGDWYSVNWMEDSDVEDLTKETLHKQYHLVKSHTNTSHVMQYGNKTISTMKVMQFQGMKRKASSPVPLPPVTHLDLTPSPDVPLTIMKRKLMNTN
Procedure: The legumain assay was conducted with recombinant human enzyme. The rh legumain enzyme solution (catalogue #2199-CY, R&D Systems) was diluted to the desired concentration in 50 mM Na acetate buffer/100 mM NaCl, pH4.0 and preincubated at 37° C. for 2 h. rh legumain was then adjusted to a final concentration of 1 ng/μl in 50 mM MES buffer, 250 mM NaCl, pH 5.0. For every legumain-cleavable prodrug to be examined, a mixture was made up in a micro reaction vessel (0.5 ml, from Eppendorf). For this purpose, the substrate solution was adjusted to the desired concentration (double concentration) with 50 mM MES buffer, 250 mM NaCl, pH 5.0. For the kinetic measurement of the enzymatic reaction, 250 μl of the legumain solution were first initially charged and the enzyme reaction was started by adding 250 μl of the substrate solution (final concentration: single concentration). At different times, 50 μl samples were taken. This sample was admixed immediately with 100 μl of ice-cold methanol in order to stop the enzymatic reaction and then frozen at −20° C. The times selected for sampling were after 0.5 h, 1 h, 3 h and 24 h. The samples were then analysed by means of RP-HPLC analysis and by LC-MS analysis. The determination of the toxophore released enabled the determination of the half-life t1/2 of the enzymatic reaction (FIG. 1).

Caco-2 cells = test: Caco-2 flux assay for cell permeability; assay type: in vitro ADME
Procedure: The cell permeability of a substance can be investigated by means of in vitro testing in a flux assay using Caco-2 cells [M. D. Troutman and D. R. Thakker, Pharm. […] For this purpose, the cells were cultured for 15-16 days on 24-well filter plates. For the determination of permeation, the respective test substance was applied in a HEPES buffer to the cells either apically (A) or basally (B) and incubated for 2 hours. After 0 hours and after 2 hours, samples were taken from the cis and trans compartments. The samples were separated by HPLC (Agilent 1200, Böblingen, Germany) using reverse phase columns. The HPLC system was coupled via a Turbo Ion Spray Interface to a Triple Quadropol mass spectrometer API 4000 (AB SCIEX Deutschland GmbH, Darmstadt, Germany).
Of critical importance for toxophors which are released intracellularly is the permeability from B to A [Papp (B-A)] and the ratio of Papp (B-A) to Papp (A-B) (efflux ratio): the lower this permeability, the slower the active and passive transport processes of the substance through the monolayer of Caco-2 cells.

[2] = target: human kinesin spindle protein KSP/Eg5 (Homo sapiens (Human), UniProt P52732); test: Inhibition of the kinesin spindle protein KSP/Eg5 (ATPase, malachite green); assay type: biochemical; conditions: Table 2; active metabolites; 10 nM KSP motor domain, 500 μM ATP
Chain of human kinesin spindle protein KSP/Eg5 (P52732 18-359): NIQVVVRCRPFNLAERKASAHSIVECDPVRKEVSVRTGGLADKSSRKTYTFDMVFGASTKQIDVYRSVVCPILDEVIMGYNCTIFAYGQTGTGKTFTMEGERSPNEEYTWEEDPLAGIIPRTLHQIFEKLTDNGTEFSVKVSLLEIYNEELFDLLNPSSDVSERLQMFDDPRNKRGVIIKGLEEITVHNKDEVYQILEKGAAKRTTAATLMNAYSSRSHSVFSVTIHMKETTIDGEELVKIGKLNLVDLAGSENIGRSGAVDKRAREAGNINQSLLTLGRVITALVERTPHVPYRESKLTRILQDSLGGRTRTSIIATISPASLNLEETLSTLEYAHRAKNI
Procedure: The motor domain of the human kinesin spindle protein KSP/Eg5 (tebu-bio/Cytoskeleton Inc, No. 027EG01-XL) was incubated in a concentration of 10 nM with microtubuli (bovine or porcine, tebu-bio/Cytoskeleton Inc) stabilized with 50 μg/ml taxol (Sigma No. T7191-5MG) for 5 min at RT in 15 mM PIPES, pH 6.8 (5 mM MgCl2 and 10 mM DTT, Sigma). […] Incubation was at RT for 2 h. ATPase activity was detected by detecting the inorganic phosphate formed using malachite green (Biomol). […] The positive controls used were monastrol (Sigma, M8515-1 mg) and ispinesib (AdooQ Bioscience A10486). The individual data of the dose-activity curve are eight-fold determinations. The IC50 values are means of two independent experiments.

extent of cleavage in the lysosomal stability assay [1]: 13% | half-life (legumain): ~10 h
SMILES: CNC(=O)[C@H](CCN(C(=O)CO)[C@@H](c1cc(-c2cc(F)ccc2F)cn1Cc1ccccc1)C(C)(C)C)NC(=O)[C@H](CC(N)=O)NC(=O)Cc1ccncc1 [RM-B, N^1-[(2S)-4-[{(1R)-1-[1-Benzyl-4-(2,5-difluorophenyl)-1H-pyrrol-2-yl]-2,2-dimethylpropyl}(glycoloyl)amino]-1-(methylamino)-1-oxobutan-2-yl]-N^2-(pyridin-4-ylacetyl)-L-aspartamide]

SMILES: CNC(=O)[C@H](CCN(C(=O)CO)[C@@H](c1cc(-c2cc(F)ccc2F)cn1Cc1ccccc1)C(C)(C)C)NC(=O)[C@H](CCC(N)=O)NC(=O)Cc1ccncc1 [RM-C, N^1-[(2S)-4-[{(1R)-1-[1-Benzyl-4-(2,5-difluorophenyl)-1H-pyrrol-2-yl]-2,2-dimethylpropyl}(glycoloyl)amino]-1-(methylamino)-1-oxobutan-2-yl]-N^2-(pyridin-4-ylacetyl)-L-glutamide]
cleavage by legumain (in words) (legumain; rh legumain): not cleaved; also recorded: not possible to show any cleavage by legumain

SMILES: CC(C)(C)[C@H](c1cc(-c2cc(F)ccc2F)cn1Cc1ccccc1)N(CC[C@H](N)C(=O)NCCNC(=O)[C@@H](CCC(=O)O)NC(=O)CNC(=O)[C@H](CC(=O)O)SC[C@H](N)C(=O)O)C(=O)CO [Example M2, trifluoroacetic acid salt]
transport from the cell and efflux ratio (in words) (Caco-2 cells; Caco-2): very low level of transport from the cell and a low efflux ratio | Papp (B-A) (Caco-2 cells; Caco-2, basal to apical, 2 hours): 0.11 ×10⁻⁶ cm/s | Efflux ratio (Caco-2 cells; Caco-2, ratio of Papp (B-A) to Papp (A-B)): 1.6 | pIC50 [2]: 9.33

SMILES: CNC(=O)[C@H](CCN(C(=O)CO)[C@@H](c1cc(-c2cc(F)ccc2F)cn1Cc1ccccc1)C(C)(C)C)NC(=O)[C@H](CC(N)=O)NC(=O)[C@H](C)NC(=O)[C@H](C)NC(=O)Cc1ccncc1 [RM-A, N-(Pyridin-4-ylacetyl)-L-alanyl-L-alanyl-N^1-[(2S)-4-[{(1R)-1-[1-benzyl-4-(2,5-difluorophenyl)-1H-pyrrol-2-yl]-2,2-dimethylpropyl}(glycoloyl)amino]-1-(methylamino)-1-oxobutan-2-yl]-L-aspartamide]
half-life at 1 µg/ml [1]: ~6 h | extent of cleavage in the lysosomal stability assay [1]: about 80% | half-life (legumain): 0.2 h
